Source: PubChem BioAssay AID330 (DTP/NCI, 2004)
“And” between values parts separate entries of the source, which are not always exact repeats. Equal entries are not always repeated. Inconclusive results and toxic doses are left out. Rule for the calls: active = survival T/C of 150% or more; inactive = T/C below 125% in these data.

System: P388 leukemia ip, CD2F1 mice, survival T/C
Assay: NCI In Vivo Anticancer Drug Screen. Data for tumor model P388 Leukemia (intraperitoneal) in CD2F1 (CDF1) mice
Conditions: endpoint: median survival time, higher = longer survival
Summary of the method: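 Mice carrying the transplanted tumor received test compound or vehicle. Survival was recorded in each group, and the value is the treated-group measurement divided by that of the vehicle-treated control group.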

[1] = dose: 60.0 mg/kg/injection, schedule: Q01DX005 (ip), vehicle: saline with Tween-80
[2] = dose: 120.0 mg/kg/injection, schedule: Q01DX005 (ip), vehicle: saline with Tween-80
[3] = dose: 240.0 mg/kg/injection, schedule: Q01DX005 (ip), vehicle: saline with Tween-80
[4] = dose: 50.0 mg/kg/injection, schedule: Q01DX005 (ip), vehicle: Klucel (hydroxypropylcellulose) (HPC)
[5] = dose: 100.0 mg/kg/injection, schedule: Q01DX005 (ip), vehicle: Klucel (hydroxypropylcellulose) (HPC)
[6] = dose: 200.0 mg/kg/injection, schedule: Q01DX005 (ip), vehicle: Klucel (hydroxypropylcellulose) (HPC)
[7] = dose: 50.0 mg/kg/injection, schedule: Q01DX009 (ip), vehicle: saline
[8] = dose: 50.0 mg/kg/injection, schedule: Q01DX009 (ip), vehicle: saline with Tween-80
[9] = dose: 100.0 mg/kg/injection, schedule: Q01DX009 (ip), vehicle: saline with Tween-80
[10] = dose: 200.0 mg/kg/injection, schedule: Q01DX009 (ip), vehicle: saline with Tween-80
[11] = dose: 50.0 mg/kg/injection, schedule: Q01DX005 (ip), vehicle: saline with Tween-80
[12] = dose: 100.0 mg/kg/injection, schedule: Q01DX005 (ip), vehicle: saline with Tween-80
[13] = dose: 200.0 mg/kg/injection, schedule: Q01DX005 (ip), vehicle: saline with Tween-80
[14] = dose: 25.0 mg/kg/injection, schedule: Q01DX009 (ip), vehicle: saline with Tween-80

Measured: T/C

CCOC(=O)C1CSC(c2ccccc2)=N1 (stereo not drawn)
inactive: [1] 109 % of control | [2] 111 % of control | [3] 111 % of control

C/C=C/CCC(=O)CC(O)CCO (stereo not drawn)
inactive: dose: 12.5 mg/kg/injection, schedule: Q01DX005 (ip), vehicle: Klucel (hydroxypropylcellulose) (HPC) 101 % of control | dose: 25.0 mg/kg/injection, schedule: Q01DX005 (ip), vehicle: Klucel (hydroxypropylcellulose) (HPC) 98 % of control | [4] 104 % of control and 89 % of control | [5] 104 % of control | [6] 101 % of control | dose: 400.0 mg/kg/injection, schedule: Q01DX005 (ip), vehicle: Klucel (hydroxypropylcellulose) (HPC) 111 % of control

O=C1C(C(=Nc2ccccc2Cl)c2ccccc2)=C(O)c2ccccc21
inactive: dose: 25.0 mg/kg/injection, schedule: Q04DX002 (ip), vehicle: saline with Tween-80 99 % of control | dose: 50.0 mg/kg/injection, schedule: Q04DX002 (ip), vehicle: saline with Tween-80 92 % of control | dose: 100.0 mg/kg/injection, schedule: Q04DX002 (ip), vehicle: saline with Tween-80 93 % of control

C=C(C)C1CC(=O)C2(C)OC2C1 (stereo not drawn)
inactive: dose: 100.0 mg/kg/injection, schedule: Q04DX002 (ip), vehicle: saline 101 % of control | dose: 200.0 mg/kg/injection, schedule: Q04DX002 (ip), vehicle: saline 100 % of control | dose: 400.0 mg/kg/injection, schedule: Q04DX002 (ip), vehicle: saline 97 % of control

CP1(=S)CCC(=O)C1 (stereo not drawn)
inactive: [7] 101 % of control | dose: 100.0 mg/kg/injection, schedule: Q01DX009 (ip), vehicle: saline 101 % of control | dose: 200.0 mg/kg/injection, schedule: Q01DX009 (ip), vehicle: saline 103 % of control

CN(C)c1ccc(/C=N/NC(N)=S)nc1
active: dose: 50.0 mg/kg/injection, schedule: Q04DX003 (ip), vehicle: saline with Tween-80 150 % of control

CC1OC(OCc2ccc3c(c2)C(=O)c2ccccc2C3=O)CC(N)C1O (stereo not drawn)
inactive: dose: 1.56 mg/kg/injection, schedule: Q01DX009 (ip), vehicle: water 105 % of control | dose: 3.12 mg/kg/injection, schedule: Q01DX009 (ip), vehicle: water 104 % of control | dose: 6.25 mg/kg/injection, schedule: Q01DX009 (ip), vehicle: water 100 % of control | dose: 12.5 mg/kg/injection, schedule: Q01DX009 (ip), vehicle: water 100 % of control | dose: 25.0 mg/kg/injection, schedule: Q01DX009 (ip), vehicle: water 103 % of control | dose: 50.0 mg/kg/injection, schedule: Q01DX009 (ip), vehicle: water 92 % of control

Nc1nc([Se]c2nc(N)nc3c2ncn3C2OC(CO)C(O)C2O)c2ncn(C3OC(CO)C(O)C3O)c2n1 (stereo not drawn)
active: dose: 25.0 mg/kg/injection, schedule: Q01DX005 (ip), vehicle: distilled water + Tween-80 150 % of control | dose: 50.0 mg/kg/injection, schedule: Q01DX005 (ip), vehicle: distilled water + Tween-80 161 % of control | dose: 100.0 mg/kg/injection, schedule: Q01DX005 (ip), vehicle: distilled water + Tween-80 156 % of control

CC(=O)N1CN2CN(C1)CN(C(C)=O)C2
inactive: dose: 100.0 mg/kg/injection, schedule: Q01DX001 (ip), vehicle: saline 105 % of control | dose: 200.0 mg/kg/injection, schedule: Q01DX001 (ip), vehicle: saline 104 % of control | dose: 400.0 mg/kg/injection, schedule: Q01DX001 (ip), vehicle: saline 107 % of control

O=C(NC(=O)C(F)(F)C(F)(F)C(F)(F)F)Nc1ccc(F)c(Cl)c1
inactive: [8] 107 % of control | [9] 99 % of control | [10] 105 % of control

OC(CO/N=C1\CCc2ccccc21)CN1CCOCC1 (stereo not drawn)
inactive: dose: 50.0 mg/kg/injection, schedule: Q01DX005 (ip), vehicle: saline 105 % of control | dose: 100.0 mg/kg/injection, schedule: Q01DX005 (ip), vehicle: saline 104 % of control | dose: 200.0 mg/kg/injection, schedule: Q01DX005 (ip), vehicle: saline 104 % of control

O=P1(NNc2ncccn2)SC(NN=C2CCCCC2)=NC12CCCCC2 (stereo not drawn)
inactive: dose: 7.5 mg/kg/injection, schedule: Q01DX005 (ip), vehicle: Klucel (hydroxypropylcellulose) (HPC) 100 % of control | dose: 15.0 mg/kg/injection, schedule: Q01DX005 (ip), vehicle: Klucel (hydroxypropylcellulose) (HPC) 95 % of control | dose: 30.0 mg/kg/injection, schedule: Q01DX005 (ip), vehicle: Klucel (hydroxypropylcellulose) (HPC) 95 % of control | dose: 60.0 mg/kg/injection, schedule: Q01DX005 (ip), vehicle: Klucel (hydroxypropylcellulose) (HPC) 100 % of control

CCCCOP(=O)(OCCCC)OC(=C(F)F)C(F)(F)P(=O)(OCCCC)OCCCC
inactive: dose: 6.25 mg/kg/injection, schedule: Q01DX009 (ip), vehicle: Klucel (hydroxypropylcellulose) (HPC) 98 % of control | dose: 12.5 mg/kg/injection, schedule: Q01DX009 (ip), vehicle: Klucel (hydroxypropylcellulose) (HPC) 91 % of control | dose: 25.0 mg/kg/injection, schedule: Q01DX009 (ip), vehicle: Klucel (hydroxypropylcellulose) (HPC) 100 % of control

CCOP(=S)(N/N=C/c1c(CO)cnc(C)c1O)OCC
inactive: [4] 98 % of control | [5] 102 % of control | [6] 101 % of control

Cn1c(CCCCCCCCc2c(C(=O)/C=C/c3ccccc3)c(=O)n(C)c(=O)n2C)c(C(=O)/C=C\c2ccccc2)c(=O)n(C)c1=O
inactive: [11] 88 % of control | [12] 90 % of control | [13] 90 % of control

CN(C/C=C/CN(C)C(=S)Nc1ccccc1)C(=S)Nc1ccccc1
inactive: dose: 12.5 mg/kg/injection, schedule: Q01DX009 (ip), vehicle: saline 95 % of control | dose: 25.0 mg/kg/injection, schedule: Q01DX009 (ip), vehicle: saline 106 % of control | dose: 25.0 mg/kg/injection, schedule: Q01DX009 (ip), vehicle: suspension in saline 91 % of control | [7] 90 % of control | dose: 50.0 mg/kg/injection, schedule: Q01DX009 (ip), vehicle: suspension in saline 86 % of control and 87 % of control

COC(=O)CC1C=CCC2C(=O)C=C(OC)C(=O)C12C (stereo not drawn)
inactive: [4] 103 % of control | [5] 100 % of control | [6] 100 % of control

N#CCCn1nc(Sc2ccccc2)c(=O)[nH]c1=O
inactive: [11] 95 % of control | [1] 100 % of control | [12] 94 % of control | [2] 100 % of control | [13] 94 % of control | [3] 95 % of control

CCN(CC)C1=Nc2ccccc2N(c2ccccc2)C(SC)=C1
inactive: [4] 111 % of control | [5] 100 % of control | [6] 97 % of control

CCC(C)C1C(=O)O[B-](F)(F)/[N+]1=C\c1ccccc1 (stereo not drawn)
inactive: dose: 100.0 mg/kg/injection, schedule: Q04DX003 (ip), vehicle: Klucel (hydroxypropylcellulose) (HPC) 104 % of control | dose: 200.0 mg/kg/injection, schedule: Q04DX003 (ip), vehicle: Klucel (hydroxypropylcellulose) (HPC) 109 % of control

Cc1cc(NCCCCCCCCNc2cc(C)nc3cc(N(C)C)ccc23)c2ccc(N(C)C)cc2n1
active: dose: 100.0 mg/kg/injection, schedule: Q04DX002 (ip), vehicle: distilled water + Tween-80 + alcohol 172 % of control
inactive: dose: 12.5 mg/kg/injection, schedule: Q04DX002 (ip), vehicle: distilled water + Tween-80 + alcohol 108 % of control | dose: 25.0 mg/kg/injection, schedule: Q04DX002 (ip), vehicle: distilled water + Tween-80 + alcohol 118 % of control

CC(C)=CCc1cc(O)c(CC=C(C)C)cc1O
inactive: [14] 101 % of control | [8] 106 % of control | [9] 96 % of control | [10] 96 % of control

Nc1nc(Cl)c(C=O)c(Cl)n1
inactive: dose: 12.5 mg/kg/injection, schedule: Q01DX009 (ip), vehicle: saline with Tween-80 96 % of control | [14] 100 % of control and 119 % of control | [8] 100 % of control and 120 % of control | [9] 115 % of control

CN1C(C)(C)CC(C(=O)c2ccccc2)(c2ccccc2)CC1(C)C
inactive: dose: 50.0 mg/kg/injection, schedule: Q01DX005 (ip), vehicle: saline + Tween-80 + alcohol 107 % of control | dose: 100.0 mg/kg/injection, schedule: Q01DX005 (ip), vehicle: saline + Tween-80 + alcohol 100 % of control

CCN(CC)CC(C)(C)C(=O)/C=C/c1ccccc1
inactive: dose: 60.0 mg/kg/injection, schedule: Q01DX005 (ip), vehicle: saline 103 % of control | dose: 120.0 mg/kg/injection, schedule: Q01DX005 (ip), vehicle: saline 102 % of control | dose: 240.0 mg/kg/injection, schedule: Q01DX005 (ip), vehicle: saline 115 % of control

COc1ccc(CCNC(=O)C2CC3CCCCN3C2C)cc1OC (stereo not drawn)
inactive: [1] 99 % of control | [2] 95 % of control | [3] 94 % of control
